This passage reports IC50 results from patent publication US8889714B2, “3,4-substituted piperidine derivatives as renin inhibitors” (Actelion Pharmaceuticals Ltd., priority 2008, dated 2014).

pIC50: −log10 of the molar value. Read-outs that look alike come from different tables or passages of the source.

In one experiment the target is T1, Human recombinant renin (Homo sapiens, UniProt P00797).
T1 construct: purchased Proteos
T1 sequence (P00797 67-406): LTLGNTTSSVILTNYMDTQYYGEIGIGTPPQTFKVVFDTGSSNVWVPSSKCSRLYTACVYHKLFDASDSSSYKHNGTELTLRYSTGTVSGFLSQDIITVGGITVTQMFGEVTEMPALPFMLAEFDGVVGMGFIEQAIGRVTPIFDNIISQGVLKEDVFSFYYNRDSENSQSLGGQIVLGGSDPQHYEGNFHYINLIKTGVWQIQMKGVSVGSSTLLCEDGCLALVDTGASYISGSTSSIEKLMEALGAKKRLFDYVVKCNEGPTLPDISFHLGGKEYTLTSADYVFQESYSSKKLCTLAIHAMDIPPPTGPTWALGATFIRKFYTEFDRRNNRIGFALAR
Nature of the experiment: Inhibition of human recombinant renin (buffer). The class given is biochemical. The note with it: 100 pM renin, 50 mM MOPS pH 7.4, 37° C., 3 hours. The method, then: Fluorescence is measured at times 0 and 3 hours with a SpectraMax Gemini EM reader set at an excitation wavelength of 328 nm and at an emission wavelength of 388 nm. Background fluorescence at t=0 is subtracted from the measurement at t=3 hours. Inhibitory activity of the compounds is expressed as IC50.

Experiment [1] deals with T2, recombinant renin in human plasma (Homo sapiens, UniProt P00797).
T2 construct: purchased Proteos
T2 sequence (P00797 67-406): T1 sequence (P00797 67-406)
Kind of experiment: Inhibition of renin in human plasma. Type of experiment: biochemical. The note with it: human EDTA plasma, 1 nM recombinant renin added, 37° C., 1 hour. The method, then:
Human EDTA-collected plasma is rapidly thawed in warm water and centrifuged at 2900 g for 15 minutes at 4° C. The supernatant is collected and recombinant renin (Proteos) is added at a final concentration of 1 nM. […] The plate is incubated at 37° C. for 1 hour. […] Background fluorescence at t=0 is subtracted from the measurement at t=1 hour. Inhibitory activity of the compounds is expressed as IC50.

[2] abbreviates: read-out: Human Renin IC50 (buffer).
Setting [3] is: read-out: Human Renin IC50 (plasma).

One may read the pIC50 as the IC50 on a negative log10 scale, so that one unit is a factor of ten. On to `COCCCc1cc(Cl)c(Cl)c(CN(C(=O)[C@@H]2CNCC[C@H]2c2ccn(C)c(=O)c2)C2CC2)c1` (relative stereo) [Example 5, trans-N-Cyclopropyl-N-({2,3-dichloro-5-[3-(methyloxy)propyl]phenyl}methyl)-4-(1-methyl-2-oxo-1,2-dihydro-4-pyridinyl)-3-piperidinecarboxamide], for which the negative logarithm of the IC50 (pIC50) at Human recombinant renin (setting [2]) is 9.52; in experiment [1] (setting [3]), 8.89.
`CCn1ccc([C@@H]2CCNC[C@H]2C(=O)N(Cc2cc(CCCOC)cc(OCCOC)c2)C2CC2)cc1=O` (relative stereo) [Example 12, trans-N-Cyclopropyl-4-(1-ethyl-2-oxo-1,2-dihydro-4-pyridinyl)-N-({3-{[2-(methyloxy)ethyl]oxy}-5-[3-(methyloxy)propyl]phenyl}methyl)-3-piperidinecarboxamide]: the pIC50 at Human recombinant renin (setting [2]) is 6.70; in experiment [1] (setting [3]), 6.34.
In the case of `COCCCc1cc(CN(C(=O)[C@@H]2CNCC[C@H]2c2cc(=O)n(C)c(C)c2C)C2CC2)cc(OCCOC)c1` (relative stereo) [Example 13, trans-N-Cyclopropyl-N-({3-{[2-(methyloxy)ethyl]oxy}-5-[3-(methyloxy)propyl]phenyl}methyl)-4-(1,5,6-trimethyl-2-oxo-1,2-dihydro-4-pyridinyl)-3-piperidinecarboxamide], the negative-log IC50 (pIC50) was 7.60 on Human recombinant renin (setting [2]) and 7.10 in experiment [1] (setting [3]).
For the molecule `COCCCc1cc(CN(C(=O)[C@@H]2CNCC[C@H]2c2ccn(C)c(=O)c2)C2CC2)c2ccccc2c1` (relative stereo) [Example 18, trans-N-Cyclopropyl-4-(1-methyl-2-oxo-1,2-dihydro-4-pyridinyl)-N-({3-[3-(methyloxy)propyl]-1-naphthalenyl}methyl)-3-piperidinecarboxamide], the negative-log IC50 (pIC50) was 9.40 on Human recombinant renin (setting [2]) and 8.74 in experiment [1] (setting [3]).
The corresponding values for `COCCCc1cc(CN(C(=O)[C@@H]2CNCC[C@H]2c2ccn(C)c(=O)c2)C2CC2)c2ccccc2n1` (relative stereo) [Example 25, trans-N-Cyclopropyl-4-(1-methyl-2-oxo-1,2-dihydro-4-pyridinyl)-N-({2-[3-(methyloxy)propyl]-4-quinolinyl}methyl)-3-piperidinecarboxamide] are 8.85 and 8.52.
For the molecule `COCCCc1cc(CN(C(=O)[C@@H]2CNCC[C@H]2c2ccn(C)c(=O)c2)C2CC2)cc(-c2ccccc2)c1` (relative stereo) [Example 33, trans-N-Cyclopropyl-4-(1-methyl-2-oxo-1,2-dihydro-4-pyridinyl)-N-({5-[3-(methyloxy)propyl]-3-biphenylyl}methyl)-3-piperidinecarboxamide], the negative logarithm of the IC50 (pIC50) was 7.82 on Human recombinant renin (setting [2]) and 7.09 in experiment [1] (setting [3]).
As for `COCCNc1cc(CN(C(=O)[C@@H]2CNCC[C@H]2c2ccn(C)c(=O)c2)C2CC2)c2ccccc2c1` (relative stereo) [Example 36, trans-N-Cyclopropyl-4-(1-methyl-2-oxo-1,2-dihydro-4-pyridinyl)-N-[(3-{[2-(methyloxy)ethyl]amino}-1-naphthalenyl)methyl]-3-piperidinecarboxamide], the pIC50 at Human recombinant renin (Human Renin IC50 (buffer)) was 8.28; in experiment [1] (Human Renin IC50 (plasma)) it was 8.62.
Take `Cn1ccc([C@@H]2CCNC[C@H]2C(=O)N(Cc2cn(Cc3cccc(F)c3)c3cccc(F)c23)C2CC2)cc1=O` (relative stereo) [Example 68, trans-N-Cyclopropyl-N-({4-fluoro-1-[(3-fluorophenyl)methyl]-1H-indol-3-yl]methyl}-4-(1-methyl-2-oxo-1,2-dihydro-4-pyridinyl)-3-piperidinecarboxamide]: the negative-log IC50 (pIC50) on Human recombinant renin (setting [2]) was 10.22; in experiment [1] (setting [3]), 9.22.
Taken in the same sequence, the figures for `COCCCn1cc(CN(C(=O)[C@@H]2CNCC[C@H]2c2ccn(C)c(=O)c2)C2CC2)c2c(F)cccc21` (relative stereo) [Example 69, trans-N-Cyclopropyl-N-({4-fluoro-1-[3-(methyloxy)propyl]-1H-indol-3-yl}methyl)-4-(1-methyl-2-oxo-1,2-dihydro-4-pyridinyl)-3-piperidinecarboxamide] were 9.52 and 9.05.
